Assay results: the supplement of paper PMC4862054

Key:
Details in all cases: incubation time: 72 h
CAL-148 [1] = test: drug sensitivity score (DSS), CellTox Green (DSS (AUC-based score)); higher = stronger drug effect (viability inhibition or cytotoxicity); extreme values may be limits of the assay
Method in brief: (§1)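 The drug sensitivity score was computed from the area under the fitted dose-response curve. Breast cancer cell lines in 20 µl suspension went into 384-well plates holding compound at 5 concentrations (10-fold steps over a 10,000-fold, compound-specific range) for 72 h of incubation. CellTox Green fluorescence (485/520 nm) was read before CellTiter-Glo luminescence, the latter after 10 min at room temperature, and each plate was normalised to 0.1 % DMSO and a positive kill control.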

MDA-MB-453 [2] = test: as above
Method in brief: as §1

CAL-51 [3] = test: as above
Method in brief: as §1

BT-549 [4] = test: as above
Method in brief: as §1

MCF-10A = test: as above
Method in brief: as §1

MDA-MB-468 [5] = test: as above
Method in brief: as §1

HDQ-P1 [6] = test: as above
Method in brief: as §1

HCC1937 [7] = test: as above
Method in brief: as §1

BT-474 = test: drug sensitivity score (DSS), CellTiter-Blue viability (DSS (AUC-based score)); higher = stronger viability inhibition; extreme values may be limits of the assay
Description: (§2)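 DSRT with the CellTiter-Blue (resazurin reduction) viability readout, fluorescence 560/590 nm, 72 h incubation. Plates were normalised to DMSO and benzethonium chloride controls. DSS is computed from the area under the fitted dose-response curve (5 or 9 concentrations).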

CAL-148 [8] = test: as above
Description: as §2

MDA-MB-453 [9] = test: as above
Description: as §2

MDA-MB-436 = test: as above
Description: as §2

CAL-51 [10] = test: as above
Description: as §2

BT-549 [11] = test: as above
Description: as §2

HCC1599 = test: as above
Description: as §2

MDA-MB-468 [12] = test: as above
Description: as §2

CAL-85-1 = test: as above
Description: as §2

MFM-223 = test: as above
Description: as §2

CAL-120 = test: as above
Description: as §2

MDA-MB-231 = test: as above
Description: as §2

DU-4475 = test: as above
Description: as §2

Hs578T = test: as above
Description: as §2

HCC1143 = test: as above
Description: as §2

HDQ-P1 [13] = test: as above
Description: as §2

SK-BR-3 = test: as above
Description: as §2

HCC1937 [14] = test: as above
Description: as §2

| Structure (SMILES) | drug sensitivity score (CAL-148 [1]) | drug sensitivity score (MDA-MB-453 [2]) | drug sensitivity score (CAL-51 [3]) | drug sensitivity score (BT-549 [4]) | drug sensitivity score (MCF-10A) | drug sensitivity score (MDA-MB-468 [5]) | drug sensitivity score (HDQ-P1 [6]) | drug sensitivity score (HCC1937 [7]) | drug sensitivity score (BT-474) | drug sensitivity score (CAL-148 [8]) | drug sensitivity score (MDA-MB-453 [9]) | drug sensitivity score (MDA-MB-436) | drug sensitivity score (CAL-51 [10]) | drug sensitivity score (BT-549 [11]) | drug sensitivity score (HCC1599) | drug sensitivity score (MDA-MB-468 [12]) | drug sensitivity score (CAL-85-1) | drug sensitivity score (MFM-223) | drug sensitivity score (CAL-120) | drug sensitivity score (MDA-MB-231) | drug sensitivity score (DU-4475) | drug sensitivity score (Hs578T) | drug sensitivity score (HCC1143) | drug sensitivity score (HDQ-P1 [13]) | drug sensitivity score (SK-BR-3) | drug sensitivity score (HCC1937 [14]) |
| --- | --- | --- | --- | --- | --- | --- | --- | --- | --- | --- | --- | --- | --- | --- | --- | --- | --- | --- | --- | --- | --- | --- | --- | --- | --- | --- |
| Cc1c(CN2CCN(C(=O)[C@H](C)O)CC2)sc2c(N3CCOCC3)nc(-c3cnc(N)nc3)nc12 [GDC-0980] | 6.07 | 0 | 6.08 | 0 | 0 | 0 | 1.58 | 0 | 15.6 | 17.2 | 22.8 | 10.4 | 18.9 | 14.7 | 15.1 | 12.3 | 14.8 | 19.2 | 17.5 | 18.5 | 12.6 | 15.4 | 15.9 | 19.2 | 22.4 | 14.1 |
| CO[C@@H](C(=O)N1Cc2[nH]nc(NC(=O)c3ccc(N4CCN(C)CC4)cc3)c2C1)c1ccccc1 [Danusertib] | 0 | 0 | 13.8 | 1.26 | 0.832 | 13.7 | 0.964 | 1.64 | 0 | 13.2 | 18.4 | 4.87 | 13.4 | 9.37 | 6.9 | 15.5 | 10.7 | 0 | 10.5 | 11 | 14.2 | 11.3 | 8.76 | 14.3 | 0 | 10.8 |
| O=C(Nc1c[nH]nc1-c1nc2ccc(CN3CCOCC3)cc2[nH]1)NC1CC1 [AT9283] | 0 | 0 | 14 | 0 | 0 | 13.2 | 0 | 0 | 8.49 | 7.72 | 17.4 | 8.22 | 14 | 12.2 | 7.51 | 22.4 | 10 | 12.4 | 18.6 | 13.2 | 22.7 | 16.4 | 9.48 | 12.4 | 17.5 | 15.4 |
| C[C@]12C=CC(=O)C=C1CC[C@@H]1[C@@H]2[C@@H](O)C[C@@]2(C)[C@H]1CC[C@]2(O)C(=O)CO [Prednisolone] | 0 | 0 | 0 | 0 | 0 | 0 | 0.861 | 0 | 0 | 0 | 4.2 | 0 | 0 | 0 | 0 | 0 | 0 | 0 | 0 | 0 | 0 | 0 | 0 | 0 | 0 | 0 |
| CC[C@@]1(O)C(=O)OCc2c1cc1n(c2=O)Cc2cc3c(CN(C)C)c(O)ccc3nc2-1 [Topotecan] | 24.6 | 0 | 19.5 | 0 | 1.98 | 8.87 | 0.486 | 3.78 | 0 | 11.5 | 3.26 | 6.23 | 5.2 | 4.7 | 3.96 | 11.6 | 3.4 | 0 | 8.72 | 3.58 | 11.1 | 0 | 5.56 | 0.903 | 11.3 | 13.2 |
| COc1ccc(-c2cc3c(C)nc(N)nc3n([C@H]3CC[C@H](OCCO)CC3)c2=O)cn1 | 12.3 | 0 | 12.5 | 5.99 | 0 | 0 | 6.58 | 1.39 | 19.6 | 18.3 | 24.6 | 17.9 | 21.2 | 19.1 | 16.2 | 17.2 | 16.7 | 19.1 | 17.7 | 19.9 | 13.7 | 20.1 | 13.8 | 22.5 | 24.9 | 18.2 |
